Results: patent US8338426B2, “Piperazinyl derivatives useful as modulators of the neuropeptide Y2 receptor” (Janssen Pharmaceutica NV, priority 2007, dated 2012)

What was measured:
human Y2 receptor = target: T1, human Y2 receptor (Homo sapiens, UniProt P49146); test: Neuropeptide Y2 radioligand binding assay, [125I]PYY, KAN-Ts cells; settings: KANT-S cells, mean ± S.E.M., read-out: hY2 pKi (converted)
T1 construct: KAN-Ts endogenously expressing Y2 receptors were used; endogenous in cells; host or cells: KAN-Ts cells
T1 sequence (P49146 1-381): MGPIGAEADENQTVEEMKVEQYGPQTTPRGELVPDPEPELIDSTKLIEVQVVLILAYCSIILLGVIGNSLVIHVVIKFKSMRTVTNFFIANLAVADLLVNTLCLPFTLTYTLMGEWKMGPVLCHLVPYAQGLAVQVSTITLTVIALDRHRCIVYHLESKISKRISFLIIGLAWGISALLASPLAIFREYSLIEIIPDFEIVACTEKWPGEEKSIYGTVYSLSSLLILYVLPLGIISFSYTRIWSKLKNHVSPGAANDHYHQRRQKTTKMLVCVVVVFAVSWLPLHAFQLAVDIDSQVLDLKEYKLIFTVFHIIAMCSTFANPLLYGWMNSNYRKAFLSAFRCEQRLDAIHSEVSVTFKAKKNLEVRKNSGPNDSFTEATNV
Procedure: (§1) Radioligand binding assays for the human and rat/mouse Y2 receptor were performed as described in Bonaventure, P., D. Nepomuceno, C. Mazur, B. Lord, D. A. Rudolph, J. A. Jablonowski, N. I. Carruthers and T. W. Lovenberg, J Pharmacol Exp Ther. 2004, 308, 1130.
(§2) KAN-Ts endogenously expressing Y2 receptors were used, for the rat and mouse Y2 receptor, membranes from rat or mouse hippocampus were prepared. Membranes were incubated with [^125I]PYY (80 pM) in the presence or absence of test compound for 1 h at rt. The reaction was stopped by filtration through GF/C filter plates pre-soaked in 0.3% polyethylenimine and subsequently washed with Tris-HCl, 50 mM, 5 mM EDTA buffer. Plates were dried for 1 h in a 55° C. oven, scintillation fluid was added and the radioactivity was counted in a Packard TopCount. Specific binding to the NPY receptor subtypes was determined by radioactivity that was bound in the presence of 1 μM NPY.
(§3) Apparent Ki values were calculated as K=IC50/(1+C/KD), where C is concentration of the radioligand and pKi=−log Ki. Data presented below are expressed as mean±S.E.M.

mouse Y2 receptor = target: T2, mouse Y2 receptor (Mus musculus, UniProt P97295); test: Neuropeptide Y2 radioligand binding assay, [125I]PYY, mouse hippocampus membranes; settings: read-out: mY2 pKi (converted)
T2 construct: membranes from rat or mouse hippocampus were prepared; from tissue; host or cells: mouse hippocampus membranes
T2 sequence (P97295 1-381): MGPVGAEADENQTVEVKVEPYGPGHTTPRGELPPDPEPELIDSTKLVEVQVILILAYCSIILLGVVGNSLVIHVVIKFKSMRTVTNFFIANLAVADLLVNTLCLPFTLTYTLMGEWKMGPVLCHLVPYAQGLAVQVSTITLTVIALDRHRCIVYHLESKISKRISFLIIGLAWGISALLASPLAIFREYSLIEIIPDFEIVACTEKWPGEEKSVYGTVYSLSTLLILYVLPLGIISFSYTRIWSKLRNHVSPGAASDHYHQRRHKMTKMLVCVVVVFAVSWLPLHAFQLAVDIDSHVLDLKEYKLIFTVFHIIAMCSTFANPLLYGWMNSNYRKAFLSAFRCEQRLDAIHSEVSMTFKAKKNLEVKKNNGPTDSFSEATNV
Procedure: as §1, §2, §3

hY2 = target: T3, hY2 (Homo sapiens, UniProt P49146); test: Ca2+ mobilization assay (FLIPR) in KAN-Ts cells; type: cell-based; settings: KANT-S cells, inhibition of PYY stimulated Ca2+ increase, read-out: hY2 pKB (converted)
T3 construct: KAN-Ts endogenously expressing Y2 receptors were used; endogenous in cells; host or cells: KAN-Ts cells stably expressing chimeric G proteins
T3 sequence (P49146 1-381): T1 sequence (P49146 1-381)
Procedure: The assay was performed using the fluorimetric imaging plate reader (FLIPR) format as described in Dautzenberg, F. M., Biochemical Pharmacology 2005, 69, 1493.
KAN-Ts cells stably expressing chimeric G proteins were seeded at a density of 100,000 cells into poly-d-lysine coated 384-well blackwall, clear-bottom microtiter plates (Corning, N.Y.). One day later, the medium was removed and 50 μl loading medium DMEM high glucose, without serum, supplemented with 10 mM HEPES-acid, 0.1% BSA, 5 mM probenecid and 2 μM Fluo-3AM was added. Cells were loaded for 1 h at 37° C., washed twice with 50 μl assay buffer (5 mM HEPES-acid, 140 mM NaCl, 1 mM MgCl2, 5 mM KCl, 10 mM glucose) and then 30 μl assay buffer was added. Cells were further pre-incubated at room temperature before adding agonists or agonists plus antagonists in 20 μl assay buffer and then measured on a T-channel fluorometric imaging plate reader (FLIPR, Molecular Devices, Sunnyvale, Calif.).
Antagonistic potency values were converted to apparent pKB values using a modified Cheng-Prusoff correction. Apparent pKB=−log IC50/1+[conc agonist/EC50]. Data below are expressed as mean±S.E.M.
The in vitro antagonistic properties of the compound of formula (A) were confirmed using Ca^2+ measurement.

[1] = tested on: ethanol-induced hyperactivity; test: Ethanol-induced hyperactivity (locomotor activity) in c57bl6/j mice; type: in vivo; settings: 10 mg/kg i.p.
From the text: C57bl6/j mice readily self-administer ethanol and these mice are sensitive to the stimulant effects of alcohol. NPY immunoreactivity is reduced in these mice. In addition, mice lacking NPY drink more ethanol than wild type mice; whereas, mice over-expressing NPY have reduced preference for ethanol. Experiments were designed to test the hypothesis that selective blockade of Y2 receptors by the compound of formula (A) decreases ethanol stimulant effects presumable by enhancing NPY function in the brain.
Locomotor activity was measured with a Hamilton Kinder motor monitor infrared beam apparatus equipped with a SmartFrame cage rack throughout which basic movements were recorded. Experiments assessed the effects of the compound of formula (A) on ethanol-induced hyperactivity in 8-10-week old c57bl6/j mice and were conducted using a between subject design. Vehicle (10 ml/kg, i.p.) or the compound of formula (A) (10 mg/kg, i.p.) was administered 15 min prior to the beginning of the session. Thereafter, animals received an acute injection of either vehicle (10 ml/kg, i.p.) or ethanol (1 g/kg, i.p), then they were immediately placed in the apparatus and locomotor activity was evaluated for 15 min. Data were analyzed with two-way repeated ANOVA using Graph Pad.

## CCN(CC)C(=O)C(c1ccccc1)N1CCN(c2ccc(NC(=O)c3ccccc3-c3cccnc3)cc2F)CC1 (racemic) [Cmpd (A), N-{4-[4-(Diethylcarbamoyl-phenyl-methyl)-piperazin-1-yl]-3-fluoro-phenyl}-2-pyridin-3-yl-benzamide]
Human Y2 receptor
  Ki: 5.5 nM
Mouse Y2 receptor
  Ki: 4.47 nM
hY2
  Kb: 2.69 nM
[1]; 15 min before ethanol 1 g/kg i.p.
  effect on ethanol-induced hyperactivity: significantly reduced ethanol hyperactivity
[1]; no ethanol
  effect on locomotor activity by itself: did not change locomotor activity by itself
